Entries after “also recorded” stand apart in the source; their conditions may differ.
Tests used:
EUFA423F HA cells = test: CellTiter-Glo cell viability, BRCA2-complemented cells; assay type: cell-based, human; settings: yes/no
Source text: Cell lines: EUFA423F cells that are derived from a Fanconi Anemia patient with complementation group D1 and have biallelic mutations (7691 insAT and 9900 insA) in BRCA2 that result in two different truncated forms of BRCA2 (Howlett N G, et al., Science (New York, NY). 2002; 297(5581):606-9) and its counterpart complemented with expression vector for full-length BRCA2 (EUFA HA) were a generous gift from Dr. Simon Powell, Molecular Biology Program, Radiation Oncology, Sloan-Kettering Cancer Center, New York, NY).
Cell proliferation assay: Selective toxicity of the compounds towards human BRCA2 deficient cells was tested in EUFA423F and its complement EUFA423F HA using CellTiter-Glo® Luminescent Cell Viability Assay (Promega, Madison, WI). The cell lines were maintained in DMEM (Gibco/ThermoFisher Scientific, Waltham, MA) supplemented with 10% FBS and 10 mM HEPES (Gibco/ThermoFisher Scientific, Waltham, MA). EUFA423F HA cells were routinely supplemented with G418 in order to maintain the BRCA2 expression plasmid. Both cell lines were seeded in sterile tissue culture treated, white opaque 384-well plates (Perkin Elmer Inc., Waltham, MA) 3000 cells/well for EUFA423F HA and 2500 cells/well for EUFA423F) and allowed to adhere for 24 hours. Compounds dissolved in DMSO were added in the concentration range of 0-100 μM. Controls were treated with equivalent DMSO volumes. The cells were treated with compounds for 72 hours (to ensure that all cells experienced at least two S-phases). Post treatment, the cells were washed, treated with the CellTiter-Glo® reagent was added and the plate was analyzed as using a Gen5 (ver2.1) luminosity plate reader. The luminescence that reports on ATP generation by the surviving cells was normalized for the DMSO treated control as 100%. The normalized luminescence (average±standard deviation for at least three independent measurements obtained with different cell passages) was plotted in GraphPad Prism as a function of compound concentration. Clonogenic Survival: EUFA423F and EUFA423F HA cells were seeded in a 96 well plate. Compounds dissolved in DMSO were added to final concentrations of 0, 50, and 100 μM for the compound of Example 8 and the compound of Example 1, and 0, 5, and 10 μM for the compounds of Examples 2-7. The cells were treated with compounds for 72 hours. Post treatment, cell cultures were harvested by collecting all non-adherent cells in the well, trypsinization of all adherent cells, combining, pelleting and then resuspending in fresh media. Cultures treated with DMSO only were subsequently counted using a hemocytometer and plated at a density of 2000, 200 and 20 cells per well in 6-well culture plates, equal volumes of cultures were plated each inhibitor concentration. Each treatment and cell density conditions for both cell lines were plated in triplicate. After expanding the colonies for a period of 8 days, cultures were fixed with a solution of 70% ethanol and crystal violet for clonogenic survival analysis. Pictures of individual wells were taken using GelCount (Version 1.3.0.4) by Oxford Optronix (Abingdon UK). A colony had to contain at least 50 cells to be counted. The number of surviving colonies following treatment are presented as a percentage of number of colonies in the experiment where the cells were treated with DMSO only.

RPA-ssDNA interaction = biological target: T1, RPA-ssDNA interaction (Homo sapiens, UniProt P27694); test: FRET-based inhibition of the RPA-ssDNA interaction; assay type: binding; settings: FRET titration
T1 construct: made in house
Protocol: Proteins: The 6×His-tagged human RAD52 proteins (wild type and mutants) and untagged human RPA were expressed and purified as previously described in (Hengel S R, eLife. 2016; 5; Grimme J M, et al., Nucleic Acids Res. 2010; 38(9):2917-30; and Henricksen L A, et al., The Journal of biological chemistry. 1994; 269(15):11121-32). RPA and RAD52 protein concentrations were determined by measuring absorbance at 280 nm using extinction coefficients of 88,830 M^−1 cm^−1 and 40,470 M^−1 cm^−1, respectively.
FRET-based DNA binding and inhibition assays: FRET-based that monitor the RAD52-ssDNA, RPA-ssDNA and RAD52-RPA-ssDNA binding were carried out as previously described (Hengel S R, eLife. 2016; 5; Grimme J M, et al., Nucleic Acids Res. 2010; 38(9):2917-30; and Grimme J M, Spies M. FRET-based assays to monitor DNA binding and annealing by Rad52 recombination mediator protein. Methods in molecular biology (Clifton, NJ). 2011; 745:463-83) using Cary Eclipse Spectrofluorimeter (Agilent) at 25° C., in 5 mm quartz cuvettes, and in buffer containing 30 mM Tris-Acetate (pH 7.5) and 1 mM DTT. Cy3 dye was excited at 530 nm and its emission was monitored at 565 nm. Emission of Cy5 acceptor fluorophore excited through the energy transfer from Cy3 donor is monitored at 660 nm simultaneously with emission of Cy3 dye. Both the excitation and the emission slits were set to 10 nm. All experiments were carried out using 1 nM (molecules) Cy3-dT30-Cy5 ssDNA. The optimal concentrations of the RAD52 (6 nM) and RPA (1 nM) proteins were selected by titrating the respective protein into 1 nM Cy3-dT30-Cy5 solution, and chosen based on the largest separation of the FRET values corresponding to the protein bound and free DNA.
The inhibition of the RAD52-ssDNA, RPA-ssDNA and RAD52-RPA-ssDNA complexes was evaluated by titrating each compound to the respective complex, measuring Cy3 and Cy5 fluorescence, and calculating FRET as previously described (Hengel, S. R., et al., eLife, 5).
Spectral properties of many compounds overlapped with the Cy3 and Cy5 fluorescence. To correct the calculated FRET values for the compound signal, the fluorogenic compounds were titrated into buffer and into solution of 1 nM Cy3-dT30-Cy5. For all tested compounds, the change in the signal in the Cy3 and Cy5 channels with and without Cy3/Cy5-labeled DNA present was the same. […] To account for the dye fluorescence, for each compound concentration, the apparent change in FRET of the ssDNA in the presence the compound was subtracted from the respective FRET signal of the RAD52-ssDNA, RPA-ssDNA or RAD52-ssDNA-RPA complex at the same inhibitor concentration. The IC50 values were calculated by fitting the corrected FRET data to the four-parameter dose response model using GraphPad Prism. All data are shown as average for at least three independent experiments ±standard deviation. The IC50 values are presented with their respective fitting error.

T1 sequence (P27694 whole entry): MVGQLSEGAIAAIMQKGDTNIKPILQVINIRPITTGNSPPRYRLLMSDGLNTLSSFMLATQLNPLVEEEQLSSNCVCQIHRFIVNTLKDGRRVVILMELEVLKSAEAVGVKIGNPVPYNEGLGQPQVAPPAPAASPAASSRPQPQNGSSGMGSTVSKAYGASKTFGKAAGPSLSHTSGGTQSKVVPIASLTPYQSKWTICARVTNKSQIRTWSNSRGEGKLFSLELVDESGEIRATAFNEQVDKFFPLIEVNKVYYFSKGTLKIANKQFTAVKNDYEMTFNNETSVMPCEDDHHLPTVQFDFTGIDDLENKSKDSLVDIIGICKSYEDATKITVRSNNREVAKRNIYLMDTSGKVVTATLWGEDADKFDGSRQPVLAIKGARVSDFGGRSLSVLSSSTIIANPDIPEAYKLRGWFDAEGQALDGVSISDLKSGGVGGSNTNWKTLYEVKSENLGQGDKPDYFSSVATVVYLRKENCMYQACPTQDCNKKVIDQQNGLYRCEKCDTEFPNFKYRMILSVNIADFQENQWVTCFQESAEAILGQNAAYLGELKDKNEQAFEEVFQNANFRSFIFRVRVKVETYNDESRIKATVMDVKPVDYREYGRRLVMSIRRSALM
T1 sequence (P15927 whole entry partner): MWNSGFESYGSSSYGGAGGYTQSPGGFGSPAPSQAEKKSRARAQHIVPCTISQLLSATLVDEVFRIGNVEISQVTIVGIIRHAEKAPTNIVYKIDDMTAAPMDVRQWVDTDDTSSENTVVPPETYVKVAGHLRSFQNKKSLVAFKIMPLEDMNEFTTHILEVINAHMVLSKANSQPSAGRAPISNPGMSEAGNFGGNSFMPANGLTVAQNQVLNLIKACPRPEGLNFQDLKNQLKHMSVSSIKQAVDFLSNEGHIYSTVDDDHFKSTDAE
T1 sequence (P35244 whole entry partner): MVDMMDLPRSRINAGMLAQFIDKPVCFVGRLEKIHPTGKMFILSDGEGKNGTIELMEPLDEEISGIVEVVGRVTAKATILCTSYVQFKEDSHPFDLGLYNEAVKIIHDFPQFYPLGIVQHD

| SMILES | toxicity towards EUFA423 HA (BRCA2-complemented cells) (EUFA423F HA cells) | effect on the RPA-ssDNA complex (RPA-ssDNA interaction) | effect on the RPA-ssDNA complex (RPA-ssDNA interaction; listed as Z56) |
| --- | --- | --- | --- |
| O=C(Cn1cccc([N+](=O)[O-])c1=O)c1c[nH]c2ccccc12 [Example 1] | yes | yields FRET values corresponding to the free ssDNA | – |
| COc1ccccc1NS(=O)(=O)c1cc(C(=O)O)ccc1C [Example 8] | no | – | does not change the FRET values of the RPA-ssDNA complex; also recorded: no effect on the RPA-ssDNA complex |
